Experimental data published in a melting point compilation (Tetko et al.; mined from patent text by program, amines drawn as free bases though some values may be those of a salt).

| melting point [°C] | Structure (SMILES) |
| --- | --- |
| 187 to 191 | CS(=O)(=O)c1nc2cnc3cccnc3c2n1Cc1ccccc1 |
| 121 to 122 | CC(=O)OCC1OC(n2c(Cl)nc3ccc(Br)cc32)C(OC(C)=O)C1OC(C)=O (stereo not drawn) |
| 143 to 145 | C#CCN1C(=O)COc2ccc(-n3c(Cl)nc(C(F)(F)F)cc3=O)cc21 |
| 95 to 96 | CC(C)(C)OC(=O)N[C@@H](Cc1ccccc1)[C@@H](O)CO |
| 196 to 197 | CC1(C)OC(=S)Nc2ccc(-c3ccc(F)c(Cl)c3)cc21 |
| 310 to 311 | CCOC(=O)c1cc2c(cn1)[nH]c1ccc(S(=O)(=O)N(C)C)cc12 |
| 150 to 151 | N[C@@H]1C(=O)N[C@@H]1COC(=O)c1ccccc1 (relative stereo) |
| 172 to 173 | O=C(O)C=CSc1c[nH]c2ccccc12 |
| 198 to 199 | CC(C)OCc1nc2nccnc2c(=O)[nH]1 |
| 157 | N#CC(Cl)Cc1ccc(C(=O)O)cc1 (stereo not drawn) |
| 91 to 92 | CC(C)(C)OC(=O)NCCc1ccc(OCCC2Oc3ccccc3N(Cc3cccc(Cl)c3)C2=O)cc1 (stereo not drawn) |
| 83 to 85 | CCOC(=O)C(C)Oc1ncn(-c2cccc(Br)c2)n1 (stereo not drawn) |
| 39 to 41.5 | C=CCN(CC)C(=O)n1cnc(S(=O)(=O)CC)n1 |
| 101 to 105 | CC(C)(C)CC(C)(C)c1cc(N=Nc2ccc(C(F)(F)F)cc2[N+](=O)[O-])c(O)c(C(C)(C)c2ccccc2)c1 |
| 121 to 123 | O=C(C=C1NC(c2ccc(F)cc2)=NC1(C(F)(F)F)C(F)(F)F)c1ccc(F)cc1 |
| 102 to 104 | COC(=O)c1ccc(OC)c2cc(OC)ccc12 |
| 75 to 77 | CCOC(=O)c1c(C)[nH]c2ccc(OC[C@@H](O)CN=[N+]=[N-])cc12 |
| 124 to 126 | Cc1c(-c2ccccc2)oc2c(C=O)cccc2c1=O |
| 36 | COC(=O)c1cccc(Cl)c1N |
| 77 to 78 | CCOc1nn(-c2c(Cl)cc(C(F)(F)F)cc2Cl)c(N)c1-c1cccc(C(F)(F)F)c1 |
| 196 to 210 | COc1cc2c(cc1OC)-c1c(O)c(OC)cc3c1C(C2)CN(C)C3 (stereo not drawn) |

| melting point [°C] | Structure (SMILES) |
| --- | --- |
| 126 to 128 | CC1(C)[C@@H](CN2CCCS2(=O)=O)CC[C@@]1(C)NCC(=O)N1C[C@@H](F)C[C@H]1C#N |
| 112 | OCCOc1ccc2c(-c3ccccc3F)noc2c1Cl |
| 101 to 103 | CCCc1c(OC(C)c2cccc(C(=O)O)c2)ccc(C(C)=O)c1O (stereo not drawn) |
| 133 to 134 | c1ccc(COc2ccc(-c3nc(COc4ccc(CCCn5ccnc5)cc4)co3)cc2)cc1 |
| 172 to 173 | CCCCn1c(=O)n(C(C)C)c(=O)c2[nH]c(C)nc21 |
| 95 to 96 | Cc1ccsc1-c1ccc(C(C)C(=O)O)cc1 (stereo not drawn) |
| 243 to 244 | CCn1cc(C(=O)NN)c(=O)c2ccc(-c3ccccc3)cc21 |
| 91 to 93 | CCCCCCCCCCCCCCCCNC(=O)c1cc(OCCBr)c2ccccc2c1O |
| 229 to 234 | CCCCCOc1ccc(C=C2SC(=S)N(CC(=O)O)C2=O)cc1OCc1ccccc1 |
| 191 to 192 | Cc1cc(-c2ccccc2)nc(-c2cccc([N+](=O)[O-])c2)c1C(=O)O |
| 151 to 154 | CCCCNCC(O)COc1ccc(-c2nc(C(F)(F)F)c[nH]2)cc1 (stereo not drawn) |
| 213 to 214 | CCNc1nc(C)c(-c2ccnc(Nc3ccc(N4CCCCC4)c(C)c3)n2)s1 |
| > 225 | CC(C)(C)CC(SC1CCCCC1)c1c(O)cc(-c2ccccc2)oc1=O (stereo not drawn) |
| 137 to 138 | COCOc1ccc(C(CS(=O)(=O)c2ccc(-c3ccc(C(F)(F)F)cc3)cc2)N(O)C=O)cc1 (stereo not drawn) |
| 195 to 200 | Oc1cc(-c2ccccc2)nc(O)n1 |
| 58 to 60 | CCNC(=O)n1nc(Oc2c(F)cc(C(F)(F)F)cc2Cl)cc1C |
| 78 to 80 | CCOC(=O)C(=Cc1ccc(-c2ccc(Cl)cc2)o1)C(=O)OCC |
| 203 to 204 | CC(=O)NC[C@H]1CN(c2ccc(N3CCC(=O)N(C)CC3)c(F)c2)C(=O)O1 |
| 149 to 154 | CC(=O)c1cc(Br)c(OP(=O)(O)O)c(Br)c1 |
| 105 | Cc1cc(-n2cncn2)c2cccc(OCc3c(Cl)ccc(S(=O)(=O)N4CCC[C@H]4C(=O)NCCCN(C)C)c3Cl)c2n1 |
| 180 to 183 | Cc1nc(NCc2ccccc2)sc1-c1ccnc(Nc2ccc(N3CCOCC3)cc2)n1 |

| melting point [°C] | Structure (SMILES) |
| --- | --- |
| 150 to 152 | CSc1ccc(/C=C2/C(C)=C(C(C)N(O)C(N)=O)c3cc(F)ccc32)cc1 (stereo not drawn) |
| 140 to 143 | C=CCNc1c(C(=O)OCC)cnc2cn(C)nc12 |
| 216 to 220 | Oc1ccc(Cn2c(S)nc3ccccc32)cc1 |
| 121 to 123 | CCCCN1CC(=O)C(C(=O)OCC)C1=O (stereo not drawn) |
| 96 to 98 | CN1C(=O)C2(COc3cc4c(cc32)OCCO4)c2c(NC(=O)C3CCCCC3)cccc21 (stereo not drawn) |
| 187 to 188 | O=C(O)c1ccc(F)cc1NC(=O)c1ccccc1C(=O)O |
| 52 to 55 | Cc1ncc(OC(=O)C2(C3CCCCC3)CCCCC2)cn1 |
| 131 to 134 | CCOC(=O)C1=Cc2cc(-c3ccc(Cl)cc3)ccc2OCC1 |
| 149 to 151 | COC(=O)c1cc(C)sc1Nc1ccc(F)cc1[N+](=O)[O-] |
| 133 to 135 | CCCCOP(=O)(Cc1cc(C(C)(C)C)c(O)c(C(C)(C)C)c1)Cc1cc(C(C)(C)C)c(O)c(C(C)(C)C)c1 |
| 61 to 62.5 | CC=CCOc1c(I)cc(C(C)O)nc1Cl (stereo not drawn) |
| 163 | Cc1ccc(C(=O)C(C#N)C#N)cc1 |
| 133 to 135 | OC1(c2ccc(F)cc2)CCC2(CC1)OCCO2 |
| 130 to 134 | CC(C)(C#N)ON1C(C)(C)CNC(=O)CC1(C)C |
| 221 to 222 | NC(=O)NN=Cc1c(-c2ccccc2)nn2ccccc12 |
| 67 to 69 | CCC(=O)C(CCCCc1ccc(O)cc1)C(=O)CC |
| 190 to 192 | Cc1ccc(-n2nc(Sc3ccc(Cl)cc3)c(C)c(C#N)c2=O)cc1 |
| 135 | COc1nc(NCCNC(C)C)nc(OC)c1[N+](=O)[O-] |
| 205 to 206 | COCOc1ccccc1-c1cc(-c2ccc(C(=O)O)cc2)c(C#N)c(NC(=O)c2cccs2)n1 |

Continued, compound first:

| Structure (SMILES) | melting point [°C] |
| --- | --- |
| CN(C)c1cc(-c2c[nH]cn2)ccn1 | 173 to 174 |
| Cn1ccc2cc(N3Cc4c(cccc4[N+](=O)[O-])C3=O)ccc21 | 267 to 271 |
| COc1cc(N)c(Cl)cc1C(=O)NCC1CCN(CCCC(=O)c2ccccc2)CC1 | 148 to 150 |
| Cc1cn(-c2cc(C)c3[nH]c(=O)ccc3c2)c(C)n1 | 322 to 325 |
| CC(C)c1c(C=O)c(-c2ccc(F)cc2)c2ccccn12 | 94 to 95 |
| COc1ccc(-c2coc3ccc(-c4nnc(SCc5ccc(OC)c(C(F)(F)F)c5)o4)cc23)cc1 | 162 to 163 |
| C=Cc1ccc(COc2ccc(CO)cc2)cc1 | 110 to 112 |
| CCCC12CCC3=C(CCc4cc(O)ccc43)C1CCC2O (stereo not drawn) | 210 to 218 |
| O=C1c2c(Cl)cccc2-n2cnc(-c3nc(CN(CC4CC4)CC4CC4)no3)c2[C@@H]2CCN12 | 155 to 160 |
| COc1cc2cc(-c3ccncc3)oc2cc1OC | 227 to 229 |
| O=[N+]([O-])c1nccn1CC(O)CN1CCCCC1 (stereo not drawn) | 108 to 109 |
| Cc1ccnc(CN(C(=O)C(C)Cl)c2ccccc2)n1 (stereo not drawn) | 110 |
| Cc1nc2c(N)nc3cc(OCCC4CCN(C(=O)NC5CCCCC5)CC4)ccc3c2n1CC(C)C | 214 to 216 |
| COCC1CN(c2cc3c(cc2F)c(=O)c(C(=O)O)cn3-c2ccc(F)cc2)CCN1 (stereo not drawn) | 216 to 218 |
| CCn1cc(C(=O)O)c(=O)c2cc(F)c(N3CCC(CNC)C3)cc21 (stereo not drawn) | 247 to 250 |
| COc1ccc(Cl)c2c1c1c(n2Cc2ccccc2)CCCC1C(N)=O (stereo not drawn) | 205 to 208 |
| COc1ccc2c(c1)C=CC(C#N)N2C(=O)c1ccccc1 (stereo not drawn) | 124 |
| CCOC(=O)c1c(CC)nn2c(-c3cccnc3)ccnc12 | 119 to 120 |
| OC1CCCN2CCCCC12 (stereo not drawn) | 70 |
| COc1ccc(C#N)cc1C(=O)NCCN1CCC(C(=O)c2ccc(F)cc2)CC1 | 167 to 169 |
| NCCc1c[nH]c2ccc(OCCCCc3ccccc3)cc12 | 130 to 132 |

| Structure (SMILES) | melting point [°C] |
| --- | --- |
| COc1cccc(CN2C(=O)CCc3cc(O)c(OC)cc32)c1 | 137 to 138 |
| COc1ccc(Oc2c(C)cc([N+](=O)[O-])cc2C)cc1 | 117 to 120 |
| CC(=O)c1c(C)c(C#N)c2nc(C3CC3)oc2c1N1CC[C@H](N(C)C)C1 | 142 |
| CCn1c(C)c(C(=O)c2ccc([N+](=O)[O-])cc2C(=O)O)c2ccccc21 | 203 to 204 |
| Nc1nccc(C=Cc2ccc([N+](=O)[O-])cc2)n1 | 214 to 216 |
| Cc1nc(-n2cnn(Cc3ccc(C(F)(F)F)o3)c2=O)sc1C(=O)NCc1cccnc1 | 124 to 125 |
| O=C(N[C@H]1CCCNC1=O)c1ccc(F)cc1F | 140 to 141 |
| Cc1nnc(-c2ccc3occ(-c4cccc(OCc5ccccc5)c4)c3c2)o1 | 96 to 97 |
| CCOc1ccc([N+](=O)[O-])c(NC2CCCCCC2)c1 | 83 |
| CCCC(=O)CC(=O)c1ccc(C2CCC(CC)CC2)cc1 (stereo not drawn) | 99 |
| Cc1ccnc(-c2cccc(Br)n2)n1 | 127 |
| NC(=O)c1csc(Cl)c1 | 138 to 139 |
| COC(=O)CCCOc1cc([N+](=O)[O-])c(CO)cc1OC | 100 |
| CCCCNC[C@@H](O)[C@H](Cc1ccccc1)NC(=O)OCc1ccccc1 | 118 to 120 |
| CCCc1c(CSc2nnc(NC(=O)C(=O)OCC)s2)ccc(C(C)=O)c1O | 189 |
| CC(NC(=O)Cc1cc(F)cc(F)c1)C(=O)NC1C(=O)NCc2cc(F)ccc21 (stereo not drawn) | 195 to 200 |
| CN1C(=O)CCC(C(=O)O)C1c1ccc2c(c1)OCO2 (stereo not drawn) | 231 to 232 |
| O=C1NC(=O)C2(N1)c1ccccc1-c1ncccc12 (stereo not drawn) | 311 to 312 |
| NCCCc1cn(S(=O)(=O)c2c(Cl)nc3sccn23)c2ccc(F)cc12 | 139 to 141 |
| O=C(N[C@@H](CN1CCC(=C2c3ccccc3C=Cc3ccccc32)CC1)C(=O)O)OCc1ccccc1 | 178 to 179 |
| O=c1oc(-c2ccsc2)cc(O)c1SCc1ccccc1 | 150 to 151 |
